Results published in patent US20040167459A1, “Methods and systems for controlling and/or increasing iontophoretic flux” (priority 2003, published 2004).
Read-outs that look alike come from different tables or passages of the source.

Key:
[1] = rabbit sclera
Procedure: (§1) FIG. 1 schematically depicts the setup employed to carry out human epidermal membrane (HEM) iontophoretic experiments described below. Scleral experiments were conducted using a simple side-by-side diffusion apparatus known to one of ordinary skill in the art. Conductive silver paint was purchased from Ladd Research Technologies (Williston, Vt.) and silver foil from EM-Science (Gibbstown, N.J.). Silver chloride powder, phosphate buffered saline (PBS, pH 7.4) tablets were purchased from Sigma (St. Louis, Mo.). ^14C-sodium salicylate was purchased from ARC (St. Louis, Mo.) and non-radiolabeled sodium salicylate from Sigma. Ultimate Gold® scintillation cocktail was purchased from Packard (Meriden, Conn.) and liquid scintillation counting was performed by a Packard TriCarb Model 1900 TR liquid scintillation analyzer. A custom built AC waveform generator power supply (EM-Tech Electronics, Lindon Utah) was used as the permeabilzation power supply for skin studies. The DC driving force for the skin studies was a 9 V battery (Duracell) combined with a fixed resistor. For scleral studies, there was no permeabilization source needed and all iontophoresis was conducted using a Phoresor PM-800 (Iomed, Inc., Salt Lake City, Utah). Human epidermal membrane was obtained from licensed sources and experiments were conducted under local IRB approval. Scleral tissue was obtained from freshly euthanized rabbit cadavers under local IACUC approval. All water was >18 MΩ prepared by the Milli-Q process. Ionac® MA-3475 (Sybron Chemical, Inc., Birmingham, N.J.) was pre-loaded with sodium salicylate by vigorously stirring the membranes in a 0.15 M sodium salicylate solution spiked with the radiolabel. Loading was considered complete when the DPM counts in the loading solution varied by less than 10% over a 12 hour period. The MA-3475 membranes were assembled in a group of five membranes and placed in the diffusion cell setup.
Scleral transport experiments were conducted using a side-by-side type diffusion cell with an open diffusional area of 0.2 cm^2. The cells were separated by a piece of excised scleral tissue from adult rabbits. The diffusion cells were assembled with the conjunctival side facing the donor compartment.
The DC iontophoresis driving electrodes were prepared by dipping a silver foil strip into a 1:1 (w/w) mixture of conductive silver paint and finely ground silver chloride. After dipping, the electrodes were hung and allowed to cure at room temperature overnight.
(§2) The receiver compartment was filled with 0.15 M PBS. In each experiment, the donor compartment contained 0.15 M sodium salicylate in water spiked with 25 nCi/ml ^14C-sodium salicylate.
Direct current DC was applied at currents of 0.5, 1, and 2 mA with a Phoresor. Every 30 minutes, the entire volume of the receiver solution was removed, mixed with scintillation cocktail, and analyzed by liquid scintillation counting. All experiments were conducted in triplicate.
The amount of ^14C-salicylate transported across the membrane was plotted as a function of time. Permeabilities were determined from the equations (8) and (9) and plotted and analyzed as in Example 1.

[2] = HEM; for Transference number: 0.5 mA DC
Procedure: as §1
Permeabilized skin transport experiments were conducted using a side-by-side type diffusion cell with an open diffusional area of 0.85 Cm^2. The cells were separated by a piece of dermatomed, heat-separated human epidermal membrane with the stratum corneum facing the donor compartment.
The DC iontophoresis driving electrodes were prepared by dipping a silver foil strip into a 1:1 (w/w) mixture of conductive silver paint and finely ground silver chloride. After dipping, the electrodes were hung and allowed to cure at room temperature overnight. The AC permeabilizing electrodes were made by mechanically drilling holes into a piece of silver foil and electro-coating the perforated silver foil with AgCl by submersion in a saturated KCl solution and passing a 1 mA current for 10 minutes.
as §2
A 1000 Hz AC potential was applied to decrease and maintain the skin resistance to 2 and 0.5 kΩ and a 9 V battery was connected to a fixed resistor in series to yield a direct current of 0.5 mA. Every 30 minutes, the entire volume of the receiver solution was removed, mixed with scintillation cocktail, and analyzed by liquid scintillation counting. All experiments were conducted at least in duplicate.
The amount of ^14C-salicylate transported across the membrane was plotted as a function of time. Permeabilities were determined from the following equations: [formula]
where J is the flux, Q is the amount of solute transported across the membrane, A is the area of the exposed membrane, t is time, P is the permeability, and CD is the concentration of the solute in the donor solution.
Permeabilities were plotted as a function of time and the slope of the best-fit line to the steady state portion of the curve was determined using regression analysis.

O=C([O-])c1ccccc1O.[Na+] [Salicylate, sodium salicylate]
increase of transference number by the permselective membrane [1]: between two- and three-fold | Salicylate Flux ([1]; DC 0.4 mA, PSM +): 21 ± 0.3 µg/min | Transference number ([1]; DC 0.4 mA, PSM +): 0.675 ± 0.073 | Salicylate Flux ([1]; DC 0.4 mA, PSM none): 13 ± 0.1 µg/min | Transference number ([1]; DC 0.4 mA, PSM none): 0.385 ± 0.007 | Salicylate Flux ([1]; DC 1.0 mA, PSM +): 48 ± 1.0 µg/min | Transference number ([1]; DC 1.0 mA, PSM +): 0.563 ± 0.013 | Salicylate Flux ([1]; DC 1.0 mA, PSM none): 21 ± 0.2 µg/min | Transference number ([1]; DC 1.0 mA, PSM none): 0.235 ± 0.007 | Salicylate Flux ([1]; DC 2.0 mA, PSM +): 109 ± 7.0 µg/min | Transference number ([1]; DC 2.0 mA, PSM +): 0.650 ± 0.048 | Salicylate Flux ([1]; DC 2.0 mA, PSM none): 36 ± 2.0 µg/min | Transference number ([1]; DC 2.0 mA, PSM none): 0.210 ± 0.014 | enhancement of salicylate flux by the permselective membrane ([1]; depending on current level): two- to three-fold | current carried by the drug ([1]; with permselective membrane): approximately 65% | Transference number ([2]; AC + DC, 0.5 kΩ, PSM +): 0.32 ± 0.03 | Transference number ([2]; AC + DC, 0.5 kΩ, PSM none): 0.12 ± 0.01 | Transference number ([2]; AC + DC, 2 kΩ, PSM +): 0.16 ± 0.03 | Transference number ([2]; AC + DC, 2 kΩ, PSM none): 0.12 ± 0.01 | Transference number ([2]; DC only, PSM +): 0.18 ± 0.03 | Transference number ([2]; DC only, PSM none): 0.13 ± 0.01 | increase in current carried by the drug due to permselective membrane ([2]; AC permeabilization, target resistance 2 kΩ): about 30% | current carried by the drug ([2]; AC permeabilization, target resistance 2 kΩ, no permselective membrane): 12% | current carried by the drug ([2]; AC permeabilization, target resistance 2 kΩ, permselective membrane present): 16% | gain in current carried by the drug due to permselective material ([2]; purely DC iontophoresis): about 40% | current carried by the drug ([2]; purely DC iontophoresis, permselective material present): 18% | current carried by the drug ([2]; purely DC iontophoresis, without permselective material): 13% | increase in electrical transference efficiency due to permselective membrane ([2]; target resistance 0.5 kΩ): ~300% | electrical transference efficiency ([2]; target resistance 0.5 kΩ, with permselective membrane): 32% | electrical transference efficiency ([2]; target resistance 0.5 kΩ, without permselective membrane): 12%
